The text below walks through data of paper PMC4186439, “Characterization of a novel brain barrier ex vivo insect-based P-glycoprotein screening model” (Pharmacology Research & Perspectives, 2014).

For series [1] the following is noted: locust hemolymph; injection of 20 μL of 20 μmol/kg dose; samples at 0.08, 0.25, 0.75, 2 and 6 h; n = 6.
Method: Clearance of test compounds from the hemolymph was measured by repeated sampling of 10 μL hemolymph from the individual locust at 5, 15, 45, 120, and 360 min after intrahemolymph administration (20 μL) of the test compound solution (20 μmol/kg body weight). The 10 μL hemolymph samples were added to microcentrifuge tubes (Eppendorf) containing 40 μL ice-cold insect buffer.
Series [2] concerns locust brain barrier. Set-up: method as in Andersson et al. [2013]. To be noted: locust ex vivo model; ref Andersson et al. [2013]; cited from earlier work.
Series [3] deals with Pgp transporter. The settings on record: locust ex vivo and mouse Pgp KO/WT; ref Andersson et al. [2013]; Doran et al. [2005]; cited from earlier work.
In series [4] the test system is Pgp transporter homologue (Mdr65). The arrangement: method as in Mayer et al. [2009]. To be noted: Drosophila melanogaster; ref Mayer et al. [2009]; cited from earlier work.
Another series concerns Pgp efflux transport. The settings on record: 3 μmol/L, 5 min, without verapamil; Fig. 5; n = 3.
Series [5] has as its system Pgp transporter. The settings on record: locust brain barrier model; ref Nielsen et al. [2011]; cited from earlier work.
Series [6] deals with locust brain barrier. To be noted: for Concentration-dependent ex vivo brain uptake profile: exposure 3, 10, 30 and 100 μmol/L for 5 min, Fig. 3, n = 3.
Series [7] has as its system Pgp transporter. In words: In vivo locust brain uptake (brain:hemolymph ratio) with or without co-injected Pgp inhibitor CsA. The settings on record: 15 min after injection, data not shown.
The subject of series [8] is Pgp transporter. The settings on record: 3 and 10 μmol/L exposure, 5 min, with and without verapamil; Fig. 4; n = 3.

As to `CC(C)NCC(O)COc1cccc2ccccc12` (stereo not drawn) [Propranolol, propranolol], in series [1], the “Elimination (drug elimination constant calculated from C = Coe^−kt)” value was −0.98 ^1 h^−1.
`CC(NC(C)(C)C)C(=O)c1cccc(Cl)c1` (stereo not drawn) [Bupropion]: in the series with locust brain barrier [2], the “Ex vivo brain uptake after increased exposure concentrations” value is listed as “more than dose-related”.
Turning to `CN(C)CCCC1(c2ccc(F)cc2)OCc2cc(C#N)ccc21` (stereo not drawn) [citalopram], the “Pgp transporter efflux liability” value with Pgp transporter [3] is given as “affected by Pgp transporter efflux”.
For the compound `COC(=O)c1ccccc1-c1c2ccc(=N)cc-2oc2cc(N)ccc12` [Rho123, rhodamine 123], in [4], the “Dm brain concentration when co-injected with the Pgp inhibitor CsA” value is “increases”.
As to `C=C[C@H]1C[N@@]2CC[C@H]1C[C@@H]2[C@@H](O)c1ccnc2ccc(OC)cc12` [Quinidine, quinidine], in the series on Pgp efflux transport, the “Ex vivo brain uptake when exposure temperature raised from 2°C to 30°C” value is reported as “corresponding increase in quinidine uptake was not seen”. Moreover, the “Uptake into the locust brain with Pgp inhibitor verapamil” value in the series on Pgp transporter [5] is “significantly increased”.
Consider `NC(=O)N1c2ccccc2C=Cc2ccccc21` [Cbz, carbamazepine], for which the “Ratio of permeabilities (dynamic range of the locust ex vivo model)” value in the series on locust brain barrier [6] (Cbz (high permeability) versus atenolol (low permeability)) was ~64. In the series with locust brain barrier [6], the “Concentration-dependent ex vivo brain uptake profile” value is recorded as “linear increase”. Also, the “Ex vivo brain uptake when exposure temperature raised from 2°C to 30°C” value in the series with Pgp efflux transport is recorded as “markedly increased”.
As to `CN(C)C(=O)C(CCN1CCC(O)(c2ccc(Cl)cc2)CC1)(c1ccccc1)c1ccccc1` [Loperamide, loperamide], the “Concentration-dependent ex vivo brain uptake profile” value in the series on locust brain barrier [6] is given as “increased more than linearly”. Moreover, the “Hemolymph concentration when injected alone or co-injected with CsA” value with Pgp transporter [7] was “no difference”. For the same compound, in the series with Pgp transporter [8], the “Ex vivo brain uptake/concentration on co-exposure to verapamil” value is given as “significantly increased”.
